≈ marks a conversion by molar mass, not a printed value.
Experiments:
Assay type in all cases: cell-based
[1] = system: M. suipneumoniae PW/C/210; experiment: Anti-mycoplasmal in vitro MIC; details: Mesomycoplasma hyopneumoniae, 144 h, Friis broth solidified with 0.9% agarose, 6 days incubation at 37°C
M. suipneumoniae LABER = experiment: Anti-mycoplasmal in vitro MIC; details: Mesomycoplasma hyopneumoniae, 144 h, Friis broth solidified with 0.9% agarose, 6 days incubation at 37°C
M. suipneumoniae HK(2) = experiment: Anti-mycoplasmal in vitro MIC; details: Mesomycoplasma hyopneumoniae, 144 h, Friis broth solidified with 0.9% agarose, 6 days incubation at 37°C
M. hyorhinis ATCC 23234 = experiment: Anti-mycoplasmal in vitro MIC; details: Mesomycoplasma hyorhinis, ATCC23234, 144 h, Friis broth solidified with 0.9% agarose, 6 days incubation at 37°C
M. suipneumoniae UCD 1 = experiment: Anti-mycoplasmal in vitro MIC; details: Mesomycoplasma hyopneumoniae, UCD1, 144 h, Friis broth solidified with 0.9% agarose, 6 days incubation at 37°C
M. suipneumoniae TAM 6N = experiment: Anti-mycoplasmal in vitro MIC; details: Mesomycoplasma hyopneumoniae, TAM6N, 144 h, Friis broth solidified with 0.9% agarose, 6 days incubation at 37°C
M. pneumoniae ATCC 15492 = experiment: Anti-mycoplasmal in vitro MIC; details: Mycoplasmoides pneumoniae, ATCC15492, 144 h, Friis broth solidified with 0.9% agarose, 6 days incubation at 37°C
[2] = system: M. suipneumoniae J2206/183b; experiment: Anti-mycoplasmal in vitro MIC; details: Mesomycoplasma hyopneumoniae, 144 h, Friis broth solidified with 0.9% agarose, 6 days incubation at 37°C
Bord. bronchiseptica BO9 = experiment: Veterinary bacteria MIC; details: Bordetella bronchiseptica, Diagnostic Sensitivity Test Agar, 18 hours at 37°C
Description: (§1) The values were determined using a two fold serial dilutions.in Diagnostic Sensitivity Test Agar with an inoculum of 10^4 organisms and incubation for 18 hours at 37°C.

Strep. uberis SPU1 = experiment: Veterinary bacteria MIC; details: Streptococcus uberis, Diagnostic Sensitivity Test Agar, 18 hours at 37°C
Description: as §1

E. Coli NCTC 10418 [3] = experiment: Veterinary bacteria MIC; details: Escherichia coli, NCTC10418, Diagnostic Sensitivity Test Agar, 18 hours at 37°C
Description: as §1

Staph. aureus Oxford [4] = experiment: Veterinary bacteria MIC; details: Staphylococcus aureus, Diagnostic Sensitivity Test Agar, 18 hours at 37°C
Description: as §1

Strep. agalactiae SPA1 = experiment: Veterinary bacteria MIC; details: Streptococcus agalactiae, Diagnostic Sensitivity Test Agar, 18 hours at 37°C
Description: as §1

Bord. bronchiseptica BO8 = experiment: Veterinary bacteria MIC; details: Bordetella bronchiseptica, Diagnostic Sensitivity Test Agar, 18 hours at 37°C
Description: as §1

Past. haemolytica PA5 = experiment: Veterinary bacteria MIC; details: Mannheimia haemolytica, Diagnostic Sensitivity Test Agar, 18 hours at 37°C
Description: as §1

S. dublin S7 = experiment: Veterinary bacteria MIC; details: Salmonella enterica, Diagnostic Sensitivity Test Agar, 18 hours at 37°C
Description: as §1

Past. multocida PA2 = experiment: Veterinary bacteria MIC; details: Pasteurella multocida, Diagnostic Sensitivity Test Agar, 18 hours at 37°C
Description: as §1

Staph. aureus 152 = experiment: Veterinary bacteria MIC; details: Staphylococcus aureus, Diagnostic Sensitivity Test Agar, 18 hours at 37°C
Description: as §1

[5] = system: Pasteurella multocida 1633; experiment: Human bacteria MIC; details: nutrient agar with 5% chocolated horse blood, 18 hours at 37°C
Description: (§2) The values were determined by serial dilutions in nutrient agar with 5% chocolated horse blood after incubations for 18 hours at 37 °C.

[6] = system: Ps. aeruginosa NCTC 10662; experiment: Human bacteria MIC; details: Pseudomonas aeruginosa, NCTC10662, nutrient agar with 5% chocolated horse blood, 18 hours at 37°C
Description: as §2

Staph. aureus Russell = experiment: Human bacteria MIC; details: Staphylococcus aureus, nutrient agar with 5% chocolated horse blood, 18 hours at 37°C
Description: as §2

E. coli ESS = experiment: Human bacteria MIC; details: Escherichia coli, nutrient agar with 5% chocolated horse blood, 18 hours at 37°C
Description: as §2

P. mirabilis 889 = experiment: Human bacteria MIC; details: Proteus mirabilis, nutrient agar with 5% chocolated horse blood, 18 hours at 37°C
Description: as §2

Staph. aureus W2827 = experiment: Human bacteria MIC; details: Staphylococcus aureus, nutrient agar with 5% chocolated horse blood, 18 hours at 37°C
Description: as §2

[7] = system: Neisseria catarrhalis 1502; experiment: Human bacteria MIC; details: nutrient agar with 5% chocolated horse blood, 18 hours at 37°C
Description: as §2

E. Coli NCTC 10418 [8] = experiment: Human bacteria MIC; details: Escherichia coli, NCTC10418, nutrient agar with 5% chocolated horse blood, 18 hours at 37°C
Description: as §2

Sarcina lutea 8340 = experiment: Human bacteria MIC; details: Micrococcus luteus, nutrient agar with 5% chocolated horse blood, 18 hours at 37°C
Description: as §2

Staph. aureus Oxford [9] = experiment: Human bacteria MIC; details: Staphylococcus aureus, nutrient agar with 5% chocolated horse blood, 18 hours at 37°C
Description: as §2

K. aerogenes A = experiment: Human bacteria MIC; details: Klebsiella aerogenes, nutrient agar with 5% chocolated horse blood, 18 hours at 37°C
Description: as §2

Strep. faecalis I = experiment: Human bacteria MIC; details: Enterococcus faecalis, nutrient agar with 5% chocolated horse blood, 18 hours at 37°C
Description: as §2

Bacillus subtilis 6633 = experiment: Human bacteria MIC; details: nutrient agar with 5% chocolated horse blood, 18 hours at 37°C
Description: as §2

Strep. 641848-C = experiment: Human bacteria MIC; details: nutrient agar with 5% chocolated horse blood, 18 hours at 37°C
Description: as §2

[10] = system: Corynebacterium xerosis 9755; experiment: Human bacteria MIC; details: nutrient agar with 5% chocolated horse blood, 18 hours at 37°C
Description: as §2

M. suipneumoniae Str. 11 = experiment: Anti-mycoplasmal in vitro MIC; details: Mesomycoplasma hyopneumoniae, 144 h, Friis broth solidified with 0.9% agarose, 6 days incubation at 37°C
[11] = system: M. suipneumoniae NCTC 10110; experiment: Anti-mycoplasmal in vitro MIC; details: Mesomycoplasma hyopneumoniae, NCTC10110, 144 h, Friis broth solidified with 0.9% agarose, 6 days incubation at 37°C
[12] = system: M. suipneumoniae ATCC 25095; experiment: Anti-mycoplasmal in vitro MIC; details: Mesomycoplasma hyopneumoniae, ATCC25095, 144 h, Friis broth solidified with 0.9% agarose, 6 days incubation at 37°C
M. dispar NCTC 10125 = experiment: Anti-mycoplasmal in vitro MIC; details: 144 h, Friis broth solidified with 0.9% agarose, 6 days incubation at 37°C

Structure (SMILES)	MIC [1]	MIC (M. suipneumoniae LABER)	MIC (M. suipneumoniae HK(2))	MIC (M. hyorhinis ATCC 23234)	MIC (M. suipneumoniae UCD 1)	MIC (M. suipneumoniae TAM 6N)	MIC (M. pneumoniae ATCC 15492)	MIC [2]	MIC (Bord. bronchiseptica BO9)	MIC (Strep. uberis SPU1)	MIC (E. Coli NCTC 10418 [3])	MIC (Staph. aureus Oxford [4])	MIC (Strep. agalactiae SPA1)	MIC (Bord. bronchiseptica BO8)	MIC (Past. haemolytica PA5)	MIC (S. dublin S7)	MIC (Past. multocida PA2)	MIC (Staph. aureus 152)	MIC [5]	MIC [6]	further results
C/C(=C\C(=O)OCc1cccc(C#N)c1)CC1OCC(C/C=C/C(C)C(C)O)C(O)C1O (stereo not drawn) [Example 5, m-Cyanobenzyl monate C]	0.5 µg/mL (≈ 1.13 µM)	0.5 µg/mL (≈ 1.13 µM)	1 µg/mL (≈ 2.25 µM)	0.5 µg/mL (≈ 1.13 µM)	1 µg/mL (≈ 2.25 µM)	1 µg/mL (≈ 2.25 µM)	5 µg/mL (≈ 11.3 µM)	1 µg/mL (≈ 2.25 µM)	20 µg/mL (≈ 45.1 µM)	0.156 µg/mL (≈ 0.352 µM)	> 80 µg/mL	2.5 µg/mL (≈ 5.64 µM)	2.5 µg/mL (≈ 5.64 µM)	> 80 µg/mL	40 µg/mL (≈ 90.2 µM)	> 80 µg/mL	5 µg/mL (≈ 11.3 µM)	2.5 µg/mL (≈ 5.64 µM)	10 µg/mL (≈ 22.5 µM)	> 100 µg/mL	MIC (Staph. aureus Russell): 2.5 µg/mL (≈ 5.64 µM); MIC (E. coli ESS): 5 µg/mL (≈ 11.3 µM); MIC (P. mirabilis 889): > 100 µg/mL; MIC (Staph. aureus W2827): 2.5 µg/mL (≈ 5.64 µM); MIC [7]: 2.5 µg/mL (≈ 5.64 µM); MIC (E. Coli NCTC 10418 [8]): > 100 µg/mL; MIC (Sarcina lutea 8340): > 100 µg/mL; MIC (Staph. aureus Oxford [9]): 2.5 µg/mL (≈ 5.64 µM); MIC (K. aerogenes A): > 100 µg/mL; MIC (Strep. faecalis I): > 100 µg/mL; MIC (Bacillus subtilis 6633): 2.5 µg/mL (≈ 5.64 µM); MIC (Strep. 641848-C): 2.5 µg/mL (≈ 5.64 µM); MIC [10]: > 100 µg/mL; MIC (M. suipneumoniae Str. 11): 0.5 µg/mL (≈ 1.13 µM); MIC [11]: 1 µg/mL (≈ 2.25 µM); MIC [12]: 0.5 µg/mL (≈ 1.13 µM); MIC (M. dispar NCTC 10125): 0.1 µg/mL (≈ 0.225 µM)
C/C(=C\C(=O)OCc1ccccc1C#N)CC1OCC(CC2OC2C(C)C(C)O)C(O)C1O (stereo not drawn) [Example 1, o-Cyanobenzyl monate A]	0.5 µg/mL (≈ 1.09 µM)	0.5 µg/mL (≈ 1.09 µM)	1 µg/mL (≈ 2.18 µM)	0.5 µg/mL (≈ 1.09 µM)	1 µg/mL (≈ 2.18 µM)	2.5 µg/mL (≈ 5.44 µM)	2.5 µg/mL (≈ 5.44 µM)	1 µg/mL (≈ 2.18 µM)	10 µg/mL (≈ 21.8 µM)	0.156 µg/mL (≈ 0.339 µM)	> 80 µg/mL	1.25 µg/mL (≈ 2.72 µM)	2.5 µg/mL (≈ 5.44 µM)	> 80 µg/mL	10 µg/mL (≈ 21.8 µM)	> 80 µg/mL	0.156 µg/mL (≈ 0.339 µM)	1.25 µg/mL (≈ 2.72 µM)	1 µg/mL (≈ 2.18 µM)	> 100 µg/mL	MIC (Staph. aureus Russell): 1 µg/mL (≈ 2.18 µM); MIC (E. coli ESS): 1 µg/mL (≈ 2.18 µM); MIC (P. mirabilis 889): > 100 µg/mL; MIC (Staph. aureus W2827): 2.5 µg/mL (≈ 5.44 µM); MIC [7]: 0.5 µg/mL (≈ 1.09 µM); MIC (E. Coli NCTC 10418 [8]): > 100 µg/mL; MIC (Sarcina lutea 8340): > 100 µg/mL; MIC (Staph. aureus Oxford [9]): 1 µg/mL (≈ 2.18 µM); MIC (K. aerogenes A): > 100 µg/mL; MIC (Strep. faecalis I): > 100 µg/mL; MIC (Bacillus subtilis 6633): 2.5 µg/mL (≈ 5.44 µM); MIC (Strep. 641848-C): 1 µg/mL (≈ 2.18 µM); MIC [10]: > 100 µg/mL; MIC (M. suipneumoniae Str. 11): 1 µg/mL (≈ 2.18 µM); MIC [11]: 1 µg/mL (≈ 2.18 µM); MIC [12]: 0.5 µg/mL (≈ 1.09 µM); MIC (M. dispar NCTC 10125): 0.25 µg/mL (≈ 0.544 µM)
C/C(=C\C(=O)OCc1cccc(C#N)c1)CC1OCC(CC2OC2C(C)C(C)O)C(O)C1O (stereo not drawn) [Example 2, m-Cyanobenzyl monate A]	0.05 µg/mL (≈ 0.109 µM)	0.05 µg/mL (≈ 0.109 µM)	0.1 µg/mL (≈ 0.218 µM)	0.025 µg/mL (≈ 0.0544 µM)	0.1 µg/mL (≈ 0.218 µM)	0.1 µg/mL (≈ 0.218 µM)	0.5 µg/mL (≈ 1.09 µM)	0.05 µg/mL (≈ 0.109 µM)	10 µg/mL (≈ 21.8 µM)	0.312 µg/mL (≈ 0.679 µM)	80 µg/mL (≈ 174 µM)	0.625 µg/mL (≈ 1.36 µM)	0.625 µg/mL (≈ 1.36 µM)	20 µg/mL (≈ 43.5 µM)	2.5 µg/mL (≈ 5.44 µM)	80 µg/mL (≈ 174 µM)	0.156 µg/mL (≈ 0.339 µM)	0.625 µg/mL (≈ 1.36 µM)	1 µg/mL (≈ 2.18 µM)	> 100 µg/mL	MIC (Staph. aureus Russell): 2.5 µg/mL (≈ 5.44 µM); MIC (E. coli ESS): 0.5 µg/mL (≈ 1.09 µM); MIC (P. mirabilis 889): 100 µg/mL (≈ 218 µM); MIC (Staph. aureus W2827): 1 µg/mL (≈ 2.18 µM); MIC [7]: 0.25 µg/mL (≈ 0.544 µM); MIC (E. Coli NCTC 10418 [8]): 50 µg/mL (≈ 109 µM); MIC (Sarcina lutea 8340): > 100 µg/mL; MIC (Staph. aureus Oxford [9]): 1 µg/mL (≈ 2.18 µM); MIC (K. aerogenes A): 100 µg/mL (≈ 218 µM); MIC (Strep. faecalis I): 100 µg/mL (≈ 218 µM); MIC (Bacillus subtilis 6633): 0.5 µg/mL (≈ 1.09 µM); MIC (Strep. 641848-C): 1 µg/mL (≈ 2.18 µM); MIC [10]: > 100 µg/mL; MIC (M. suipneumoniae Str. 11): 0.05 µg/mL (≈ 0.109 µM); MIC [11]: 0.05 µg/mL (≈ 0.109 µM); MIC [12]: 0.05 µg/mL (≈ 0.109 µM); MIC (M. dispar NCTC 10125): 0.025 µg/mL (≈ 0.0544 µM)

Reference: patent EP0052437A1, “Antibacterial compounds, processes for their preparation and compositions containing them” (BEECHAM GROUP PLC, priority 1980, dated 1982)
